According to EP4389749A1, “SUBSTITUTED 3,7-DIHYDRO-1H-PURINE-2,6-DIONES AND USE THEREOF” (invIOs GmbH, priority 2022, dated 2024):

Columns and labels:
B16-SIY melanoma = assay: Efficacy on B16-SIY melanoma, in vivo tumor growth; settings: p.o., over the course of 21 days, C57BL/6 mice, B16-SIY intradermal
Method: Eight-weeks-old C57BL/6 mice were purchased from Charles River. All animal experiments were in accordance with institutional guidelines of the Research Institute of Molecular Pathology (Austria) and approved according to the European Community rules of animal care with the permission of the Austrian Ministry of Science.
B16-SIY melanoma cells were cultured in DMEM containing 10 % FCS, 1 % PenStrep and 1 % glutamine and grown in a humidified incubator at 37 °C and 5 % CO2. For tumor inoculations sub-confluent B16-SIYcells were trypsinized, washed, counted and resuspended in PBS to a final concentration of 1×10^7 B16-SIY cells/ml.
30 C57BL/6 mice were inoculated intradermally with 1×10^6 B16-SIY cells and tumor bearing mice randomly assigned to 3 different groups […] post transplantation: Compound 142 30 mg/kg 3 days post B16-SIY inoculation and subsequent daily administration of 10 mg/kg (10 mice), Compound 142 9 mg/kg 3 days post B16-SIY inoculation and subsequent daily treatment of 3 mg/kg (10 mice), or vehicle control (10 mice). Compound 142 was diluted in 10 % DMSO, 20 % PEG400, 21 % HPbCD, 0.35 % HPMC and 48.65 % H2O and mice treated p.o. with 2 different treatment schedules: d3: 30 mg/kg + QD: 10 mg/kg or d3: 9 mg/kg + QD: 3 mg/kg (Figure 1). […] Tumors were measured daily and mice sacrificed 21 days post B16-SIY inoculation (Figure 1). […]

CD8+ T-cells = assay: Immunostimulation assay with anti-CD3/28 stimulated T-cells, CD69 expression by flow cytometry; assay type: cell-based, human; settings: T-cell; purified human CD4+ and CD8+ T-cells, 1 µg/ml anti-CD3, 1 µg/ml anti-CD28, 16 hours, surface FACS; read-out: EC50 CD8+
In short: (§1)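 Human CD4+/CD8+ T-cells purified from buffy-coat PBMCs were stimulated with 1 µg/ml anti-CD3 and 1 µg/ml anti-CD28 plus compound (0.001–30 µM) for 16 h at 37 °C. CD69 measured by flow cytometry; DMSO set minimal, CD3/28 Dynabeads maximal activation; EC50 by variable-slope fit.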

CD4+ T-cells = assay: as above; assay type: cell-based, human; settings: T-cell; purified human CD4+ and CD8+ T-cells, 1 µg/ml anti-CD3, 1 µg/ml anti-CD28, 16 hours, surface FACS; read-out: EC50 CD4+
In short: as §1

- EC50 (CD8+ T-cells): 500 to 1000 nM
- EC50 (CD4+ T-cells): 500 to 1000 nM
Compound: CC(O)Cn1c(=O)[nH]c(=O)c2c1nc(-c1ccc(Oc3ccc(OC(F)(F)F)cc3)cc1)n2C (stereo not shown) [Compound 142, 3-(2-hydroxypropyl)-7-methyl-8-(4-(4-(trifluoromethoxy)phenoxy)phenyl)-3,7-dihydro-1H-purine-2,6-dione]
- Tumor volumes compared to vehicle control (B16-SIY melanoma; d3: 9 mg/kg + QD: 3 mg/kg): significantly reduced
- Tumor volumes compared to vehicle control (B16-SIY melanoma; d3: 30 mg/kg + QD: 10 mg/kg): significantly reduced
